Data published in patent publication US9493446B2, “Orexin receptor antagonists which are [ortho bi-(hetero-)aryl]-[2-(meta bi-(hetero-)aryl)-pyrrolidin-1-yl]-methanone derivatives” (Actelion Pharmaceuticals Ltd, priority 2012, dated 2016).
Read-outs that look alike come from different tables or passages of the source.

Experiments:
orexin-1 = orexin-1 (Homo sapiens (Human), UniProt O43613); experiment: Intracellular calcium measurement (FLIPR), CHO cells expressing human orexin-1 receptor, 3 nM orexin-A; format: cell-based; conditions: read-out: IC50 OX1
Method in brief: (§1)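 HBSS buffer with 0.1% BSA, NaHCO3 and 20 mM HEPES carries both compounds and agonist. Dye: fluo-4 AM (3 μM) with 5 mM probenecid. Compound exposure 120 min; peak signal scored against uninhibited orexin-A response.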

human orexin-2 receptor = human orexin-2 receptor (Homo sapiens (Human), UniProt O43614); experiment: Intracellular calcium measurement (FLIPR), CHO cells expressing human orexin-2 receptor, 3 nM orexin-A; format: cell-based; conditions: read-out: IC50 OX2
Method in brief: as §1

[1] = CHO cells expressing human orexin-1 receptor, FLIPR, 3 nM orexin-A, geometric mean if determined several times
[2] = CHO cells expressing human orexin-2 receptor, FLIPR, 3 nM orexin-A, geometric mean if determined several times

Sequence of human orexin-2 receptor (O43614 whole entry): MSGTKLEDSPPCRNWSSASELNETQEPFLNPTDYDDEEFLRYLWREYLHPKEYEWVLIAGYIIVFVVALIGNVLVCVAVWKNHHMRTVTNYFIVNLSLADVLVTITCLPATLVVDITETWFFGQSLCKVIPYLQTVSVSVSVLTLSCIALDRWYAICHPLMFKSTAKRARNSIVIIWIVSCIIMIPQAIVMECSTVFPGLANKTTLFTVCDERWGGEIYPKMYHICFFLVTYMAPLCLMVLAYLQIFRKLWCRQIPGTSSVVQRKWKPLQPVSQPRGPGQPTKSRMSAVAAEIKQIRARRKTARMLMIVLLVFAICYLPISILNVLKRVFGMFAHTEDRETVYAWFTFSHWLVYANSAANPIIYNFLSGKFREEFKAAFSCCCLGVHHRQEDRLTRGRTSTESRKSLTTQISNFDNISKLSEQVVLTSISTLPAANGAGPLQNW
Sequence of orexin-1 (O43613 whole entry): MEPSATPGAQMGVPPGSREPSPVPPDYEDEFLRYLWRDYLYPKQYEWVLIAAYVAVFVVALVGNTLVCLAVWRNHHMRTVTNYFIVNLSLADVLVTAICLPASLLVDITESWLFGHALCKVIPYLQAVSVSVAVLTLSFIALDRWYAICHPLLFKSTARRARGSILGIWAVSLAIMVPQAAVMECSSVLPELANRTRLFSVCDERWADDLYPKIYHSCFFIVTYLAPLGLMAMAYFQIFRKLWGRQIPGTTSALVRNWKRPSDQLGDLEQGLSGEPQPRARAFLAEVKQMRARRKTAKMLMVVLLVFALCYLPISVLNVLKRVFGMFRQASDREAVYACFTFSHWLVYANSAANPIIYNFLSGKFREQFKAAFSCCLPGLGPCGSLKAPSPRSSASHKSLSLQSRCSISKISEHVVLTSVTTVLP

IC50 (orexin-1; [1]) [nM] | IC50 (human orexin-2 receptor; [2]) [nM] | SMILES | IC50 (orexin-1) [nM] | IC50 (human orexin-2 receptor) [nM]
– | – | O=C(c1ccccc1-n1nccn1)N1CCC[C@H]1c1nc(-c2ccccc2Cl)no1 [compound 243] | 2680 | 312
306 | 18 | Cc1c(F)cccc1-c1noc([C@@H]2CCCN2C(=O)c2ccccc2-n2nccn2)n1 [compound 244, {(S)-2-[3-(3-Fluoro-2-methyl-phenyl)-[1,2,4]oxadiazol-5-yl]-pyrrolidin-1-yl}-(2-[1,2,3]triazol-2-yl-phenyl)-methanone] | – | –
135 | 14 | Cc1ccc(C(=O)N2CCC[C@H]2c2nc(-c3cccc(F)c3C)no2)c(-n2nccn2)c1 [compound 246, {(S)-2-[3-(3-Fluoro-2-methyl-phenyl)-[1,2,4]oxadiazol-5-yl]-pyrrolidin-1-yl}-(4-methyl-2-[1,2,3]triazol-2-yl-phenyl)-methanone] | – | –
17 | 3 | Cc1cc(C(=O)N2CCC[C@H]2c2nc(-c3cccc(F)c3C)no2)c(-n2nccn2)cc1C [compound 247, (4,5-Dimethyl-2-[1,2,3]triazol-2-yl-phenyl)-{(S)-2-[3-(3-fluoro-2-methyl-phenyl)-[1,2,4]oxadiazol-5-yl]-pyrrolidin-1-yl}-methanone] | – | –
151 | 8 | COc1ccc(-n2nccn2)c(C(=O)N2CCC[C@H]2c2nc(-c3cccc(F)c3C)no2)c1 [compound 249, {(S)-2-[3-(3-Fluoro-2-methyl-phenyl)-[1,2,4]oxadiazol-5-yl]-pyrrolidin-1-yl}-(5-methoxy-2-[1,2,3]triazol-2-yl-phenyl)-methanone] | – | –
489 | 38 | Cc1c(F)cccc1-c1noc([C@@H]2CCCN2C(=O)c2cc(F)ccc2-n2nccn2)n1 [compound 250, {(S)-2-[3-(3-Fluoro-2-methyl-phenyl)-[1,2,4]oxadiazol-5-yl]-pyrrolidin-1-yl}-(5-fluoro-2-[1,2,3]triazol-2-yl-phenyl)-methanone] | – | –
626 | 90 | Cc1cccc(C(=O)N2CCC[C@H]2c2nc(-c3cccc(F)c3C)no2)c1-n1nccn1 [compound 251, {(S)-2-[3-(3-Fluoro-2-methyl-phenyl)-[1,2,4]oxadiazol-5-yl]-pyrrolidin-1-yl}-(3-methyl-2-[1,2,3]triazol-2-yl-phenyl)-methanone] | – | –
174 | 5 | Cc1c(F)cccc1-c1noc([C@@H]2CCCN2C(=O)c2cccc(F)c2-c2ccn[nH]2)n1 [compound 253, {(S)-2-[3-(3-Fluoro-2-methyl-phenyl)-[1,2,4]oxadiazol-5-yl]-pyrrolidin-1-yl}-[3-fluoro-2-(2H-pyrazol-3-yl)-phenyl]-methanone] | – | –
69 | 20 | CCOc1ccccc1-c1noc([C@@H]2CCCN2C(=O)c2cccc(F)c2-c2ccn[nH]2)n1 [compound 254, {(S)-2-[3-(2-Ethoxy-phenyl)-[1,2,4]oxadiazol-5-yl]-pyrrolidin-1-yl}-[3-fluoro-2-(2H-pyrazol-3-yl)-phenyl]-methanone] | – | –
43 | 20 | CCOc1ccccc1-c1noc([C@@H]2CCCN2C(=O)c2ccc(C)cc2-n2nccn2)n1 [compound 256, {(S)-2-[3-(2-Ethoxy-phenyl)-[1,2,4]oxadiazol-5-yl]-pyrrolidin-1-yl}-(4-methyl-2-[1,2,3]triazol-2-yl-phenyl)-methanone] | – | –
4 | 1 | CCOc1ccccc1-c1noc([C@@H]2CCCN2C(=O)c2cc(C)c(C)cc2-n2nccn2)n1 [compound 257, (4,5-Dimethyl-2-[1,2,3]triazol-2-yl-phenyl)-{(S)-2-[3-(2-ethoxy-phenyl)-[1,2,4]oxadiazol-5-yl]-pyrrolidin-1-yl}-methanone] | – | –
27 | 4 | CCOc1ccccc1-c1noc([C@@H]2CCCN2C(=O)c2cc(OC)c(C)cc2-n2nccn2)n1 [compound 258, {(S)-2-[3-(2-Ethoxy-phenyl)-[1,2,4]oxadiazol-5-yl]-pyrrolidin-1-yl}-(5-methoxy-4-methyl-2-[1,2,3]triazol-2-yl-phenyl)-methanone] | – | –
352 | 99 | CCOc1ccccc1-c1noc([C@@H]2CCCN2C(=O)c2nc(C)ccc2-n2nccn2)n1 [compound 259, {(S)-2-[3-(2-Ethoxy-phenyl)-[1,2,4]oxadiazol-5-yl]-pyrrolidin-1-yl}-(6-methyl-3-[1,2,3]triazol-2-yl-pyridin-2-yl)-methanone] | – | –
392 | 63 | CCOc1ccccc1-c1noc([C@@H]2CCCN2C(=O)c2ccccc2-n2nccn2)n1 [compound 260, {(S)-2-[3-(2-Ethoxy-phenyl)-[1,2,4]oxadiazol-5-yl]-pyrrolidin-1-yl}-(2-[1,2,3]triazol-2-yl-phenyl)-methanone] | – | –
26 | 9 | CCOc1ccccc1-c1noc([C@@H]2CCCN2C(=O)c2cc(OC)ccc2-n2nccn2)n1 [compound 261, {(S)-2-[3-(2-Ethoxy-phenyl)-[1,2,4]oxadiazol-5-yl]-pyrrolidin-1-yl}-(5-methoxy-2-[1,2,3]triazol-2-yl-phenyl)-methanone] | – | –
1110 | 145 | CCOc1ccccc1-c1noc([C@@H]2CCCN2C(=O)c2cccc(C)c2-n2nccn2)n1 [compound 262, {(S)-2-[3-(2-Ethoxy-phenyl)-[1,2,4]oxadiazol-5-yl]-pyrrolidin-1-yl}-(3-methyl-2-[1,2,3]triazol-2-yl-phenyl)-methanone] | – | –
505 | 105 | CCOc1ccccc1-c1noc([C@@H]2CCCN2C(=O)c2cc(F)ccc2-n2nccn2)n1 [compound 263, {(S)-2-[3-(2-Ethoxy-phenyl)-[1,2,4]oxadiazol-5-yl]-pyrrolidin-1-yl}-(5-fluoro-2-[1,2,3]triazol-2-yl-phenyl)-methanone] | – | –
– | – | Cc1ccc(-n2nccn2)c(C(=O)N2CCC[C@H]2c2nc(-c3cccc(Cl)c3C)no2)c1F [compound 266] | 115 | 14
282 | 32 | Cc1ccc(-n2nccn2)c(C(=O)N2CCC[C@H]2c2nc(-c3cccc(OC(F)(F)F)c3)no2)c1 [compound 270, (5-Methyl-2-[1,2,3]triazol-2-yl-phenyl)-{(S)-2-[3-(3-trifluoromethoxy-phenyl)-[1,2,4]oxadiazol-5-yl]-pyrrolidin-1-yl}-methanone] | – | –
69 | 189 | Cc1ccc(C(=O)N2CCC[C@H]2c2nc(-c3ccccc3OC(F)(F)F)no2)c(-n2nccn2)c1C [compound 271, (3,4-Dimethyl-2-[1,2,3]triazol-2-yl-phenyl)-{(S)-2-[3-(2-trifluoromethoxy-phenyl)-[1,2,4]oxadiazol-5-yl]-pyrrolidin-1-yl}-methanone] | – | –
149 | 252 | COc1c(F)cccc1-c1noc([C@@H]2CCCN2C(=O)c2ccc(C)c(C)c2-n2nccn2)n1 [compound 272, (3,4-Dimethyl-2-[1,2,3]triazol-2-yl-phenyl)-{(S)-2-[3-(3-fluoro-2-methoxy-phenyl)-[1,2,4]oxadiazol-5-yl]-pyrrolidin-1-yl}-methanone] | – | –
148 | 134 | CCOc1ncccc1-c1noc([C@@H]2CCCN2C(=O)c2ccc(C)c(C)c2-n2nccn2)n1 [compound 273, (3,4-Dimethyl-2-[1,2,3]triazol-2-yl-phenyl)-{(S)-2-[3-(2-ethoxy-pyridin-3-yl)-[1,2,4]oxadiazol-5-yl]-pyrrolidin-1-yl}-methanone] | – | –
210 | 161 | N#Cc1ccc(-n2nccn2)c(C(=O)N2CCC[C@H]2c2nc(-c3ccccc3OC(F)(F)F)no2)c1 [compound 275, 4-[1,2,3]Triazol-2-yl-3-{(S)-2-[3-(2-trifluoromethoxy-phenyl)-[1,2,4]oxadiazol-5-yl]-pyrrolidine-1-carbonyl}-benzonitrile] | – | –
1480 | 297 | Cc1c(F)cccc1-c1noc([C@@H]2CCCN2C(=O)c2cc(C#N)ccc2-n2nccn2)n1 [compound 277, 3-{(S)-2-[3-(3-Fluoro-2-methyl-phenyl)-[1,2,4]oxadiazol-5-yl]-pyrrolidine-1-carbonyl}-4-[1,2,3]triazol-2-yl-benzonitrile] | – | –

SMILES | IC50 (orexin-1; [1]) [nM] | IC50 (human orexin-2 receptor; [2]) [nM] | IC50 (orexin-1) [nM] | IC50 (human orexin-2 receptor) [nM]
Cc1ccc(-n2nccn2)c(C(=O)N2CCC[C@H]2c2nc(-c3ccccc3Cl)no2)n1 [compound 242] | 4360 | 1440 | – | –
Cc1c(F)cccc1-c1noc([C@@H]2CCCN2C(=O)c2cc(Cl)ccc2-n2nccn2)n1 [compound 245] | – | 21 | 262 | –
CCOc1ccccc1-c1noc([C@@H]2CCCN2C(=O)c2cc(Cl)ccc2-n2nccn2)n1 [compound 255] | 36 | 8 | – | –
Cc1c(Cl)cccc1-c1noc([C@@H]2CCCN2C(=O)c2cc(Cl)ccc2-n2nccn2)n1 [compound 264] | 165 | – | – | 14
COc1ccc(-n2nccn2)c(C(=O)N2CCC[C@H]2c2nc(-c3cccc(Cl)c3C)no2)c1F [compound 265] | 112 | 76 | – | –
Cc1noc(-c2ccccc2C(=O)N2CCC[C@H]2c2nc(-c3cccc(Cl)c3C)no2)n1 [compound 267] | 501 | 177 | – | –
Cc1c(Cl)cccc1-c1noc([C@@H]2CCCN2C(=O)c2ccccc2-c2ccccc2)n1 [compound 268] | 233 | 31 | – | –
COc1cc(C(=O)N2CCC[C@H]2c2nc(-c3cccc(Cl)c3C)no2)c(-c2ncccn2)cc1C [compound 269] | 177 | 12 | – | –
Cc1ccc(-c2ncccn2)c(C(=O)N2CCC[C@H]2c2nc(-c3cccc(Cl)c3C)no2)c1 [compound 274] | 171 | 29 | – | –
Cc1c(Cl)cccc1-c1noc([C@@H]2CCCN2C(=O)c2cc(C#N)ccc2-n2nccn2)n1 [compound 276] | 762 | 243 | – | –
